According to patent US10597388B2, “Pyridazinone herbicides” (FMC CORPORATION, priority 2014, dated 2020):

Legend:
Experiment in all cases: Test D controlled growth environment herbicide test, pre- and postemergence
Assay type in all cases: in vivo
[1] = test system: Russian thistle (Salsola kali)
Summary of the method: (§1)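 Pre-emergence: seeds sown in silt loam soil were sprayed with compound in a non-phytotoxic solvent mix containing surfactant. Post-emergence: plants at 2 to 18 cm (1- to 4-leaf stage) in peat moss/vermiculite medium got the same formulation. Visual 0–100 rating versus controls after 14 to 21 d.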

[2] = test system: radish, wild (wild radish, Raphanus raphanistrum)
Summary of the method: as §1

[3] = test system: galium (catchweed bedstraw, Galium aparine)
Summary of the method: as §1

[4] = test system: buckwheat, wild (wild buckwheat, Polygonum convolvulus)
Summary of the method: as §1

[5] = test system: oilseed rape (Brassica napus)
Summary of the method: as §1

[6] = test system: canarygrass (Phalaris minor)
Summary of the method: as §1

[7] = test system: field violet (Viola arvensis)
Summary of the method: as §1

[8] = test system: bluegrass (annual bluegrass, Poa annua)
Summary of the method: as §1

[9] = test system: windgrass (Apera spica-venti)
Summary of the method: as §1

[10] = test system: speedwell (bird's-eye speedwell, Veronica persica)
Summary of the method: as §1

[11] = test system: kochia (Kochia scoparia)
Summary of the method: as §1

[12] = test system: pigweed (Amaranthus retroflexus)
Summary of the method: as §1

[13] = test system: mustard, wild (wild mustard, Sinapis arvensis)
Summary of the method: as §1

[14] = Postemergence, 31 g ai/ha, scale 0 to 100 (0 no effect, 100 complete control)
[15] = Postemergence, 125 g ai/ha, visual rating on scale 0 (no effect) to 100 (complete control), 14 to 21 d
[16] = Postemergence, 250 g ai/ha, scale 0 to 100 (0 no effect, 100 complete control)
[17] = Preemergence, 62 g ai/ha, scale 0 to 100 (0 no effect, 100 complete control)
[18] = Preemergence, 125 g ai/ha, scale 0 to 100 (0 no effect, 100 complete control)
[19] = Preemergence, 250 g ai/ha, scale 0 to 100 (0 no effect, 100 complete control)
[20] = postemergence, 62 g ai/ha, scale 0 to 100, 0 no effect, 100 complete control

CCC(=O)Oc1c(C)nn(C)c(=O)c1-c1c(C)sc2ccc(C)cc12 [Compound 42]
5: Radish, Wild plant response rating [2, 14]
80: Buckwheat, Wild plant response rating [4, 14] | Plant response rating, Buckwheat, Wild [4, 18] | Plant response rating, Canarygrass [6, 15] | Plant response rating, Canarygrass [6, 16] | Plant response rating, Field Violet [7, 20] | Bluegrass plant response rating [8, 19] | Plant response rating, Mustard, Wild [13, 16]
50: Plant response rating, Oilseed Rape [5, 20] | Canarygrass plant response rating [6, 14] | Plant response rating, Speedwell [10, 20]
75: Plant response rating, Russian Thistle [1, 19] | Plant response rating, Russian Thistle [1, 20] | Plant response rating, Canarygrass [6, 20] | Plant response rating, Windgrass [9, 20] | Plant response rating, Speedwell [10, 17] | Plant response rating, Kochia [11, 18]
35: Plant response rating, Bluegrass [8, 16] | Plant response rating (scale of 0 to 100), Bluegrass ([8]; Preemergence, 31 g ai/ha)
65: Plant response rating, Russian Thistle [1, 18] | Plant response rating, Radish, Wild [2, 16] | Plant response rating, Bluegrass [8, 18]
85: Plant response rating, Russian Thistle [1, 15] | Plant response rating, Galium [3, 17] | Plant response rating (scale of 0 to 100), Field Violet ([7]; Preemergence, 31 g ai/ha) | Plant response rating, Windgrass [9, 17] | Plant response rating, Windgrass [9, 18] | Pigweed plant response rating [12, 14]
20: Plant response rating, Radish, Wild [2, 15] | Plant response rating (scale of 0 to 100), Buckwheat, Wild ([4]; Preemergence, 31 g ai/ha) | Plant response rating, Bluegrass [8, 15] | Plant response rating, Bluegrass [8, 20] | Plant response rating (scale of 0 to 100), Kochia ([11]; Preemergence, 31 g ai/ha) | Plant response rating, Mustard, Wild [13, 18]
25: Plant response rating, Buckwheat, Wild [4, 17] | Mustard, Wild plant response rating [13, 14] | Plant response rating, Mustard, Wild [13, 19]
95: Plant response rating, Galium [3, 18] | Plant response rating, Buckwheat, Wild [4, 20] | Plant response rating, Canarygrass [6, 17] | Plant response rating, Field Violet [7, 17] | Plant response rating, Kochia [11, 15]
15: Plant response rating, Russian Thistle [1, 17] | Plant response rating, Radish, Wild [2, 18] | Bluegrass plant response rating [8, 14] | Plant response rating (scale of 0 to 100), Mustard, Wild ([13]; Preemergence, 31 g ai/ha) | Plant response rating, Mustard, Wild [13, 17]
98: Plant response rating, Windgrass [9, 16]
10: Plant response rating (scale of 0 to 100), Russian Thistle ([1]; Preemergence, 31 g ai/ha) | Plant response rating, Radish, Wild [2, 20] | Oilseed Rape plant response rating [5, 14] | Speedwell plant response rating [10, 14]
90: Plant response rating, Russian Thistle [1, 16] | Plant response rating (scale of 0 to 100), Canarygrass ([6]; Preemergence, 31 g ai/ha) | Plant response rating, Field Violet [7, 15] | Plant response rating, Field Violet [7, 16] | Plant response rating, Windgrass [9, 15] | Plant response rating, Kochia [11, 20] | Plant response rating, Pigweed [12, 15] | Plant response rating (scale of 0 to 100), Pigweed ([12]; Preemergence, 31 g ai/ha) | Plant response rating, Pigweed [12, 20]
100: Galium plant response rating [3, 14] | Plant response rating, Galium [3, 15] | Plant response rating, Galium [3, 16] | Plant response rating, Galium [3, 19] | Plant response rating, Galium [3, 20] | Plant response rating, Buckwheat, Wild [4, 15] | Plant response rating, Buckwheat, Wild [4, 16] | Plant response rating, Canarygrass [6, 18] | Plant response rating, Canarygrass [6, 19] | Plant response rating, Field Violet [7, 18] | Plant response rating, Field Violet [7, 19] | Plant response rating, Windgrass [9, 19] | Plant response rating, Speedwell [10, 19] | Plant response rating, Kochia [11, 16] | Plant response rating, Kochia [11, 19] | Plant response rating, Pigweed [12, 16] | Plant response rating, Pigweed [12, 17] | Plant response rating, Pigweed [12, 18] | Plant response rating, Pigweed [12, 19]
70: Russian Thistle plant response rating [1, 14] | Plant response rating (scale of 0 to 100), Galium ([3]; Preemergence, 31 g ai/ha) | Plant response rating, Oilseed Rape [5, 16] | Field Violet plant response rating [7, 14] | Windgrass plant response rating [9, 14] | Plant response rating (scale of 0 to 100), Windgrass ([9]; Preemergence, 31 g ai/ha) | Plant response rating (scale of 0 to 100), Speedwell ([10]; Preemergence, 31 g ai/ha) | Plant response rating, Speedwell [10, 18] | Kochia plant response rating [11, 14] | Plant response rating, Mustard, Wild [13, 15] | Plant response rating, Mustard, Wild [13, 20]
0: Plant response rating (scale of 0 to 100), Radish, Wild ([2]; Preemergence, 31 g ai/ha) | Plant response rating (scale of 0 to 100), Oilseed Rape ([5]; Preemergence, 31 g ai/ha) | Plant response rating, Oilseed Rape [5, 17] | Plant response rating, Oilseed Rape [5, 18] | Plant response rating, Oilseed Rape [5, 19]
60: Plant response rating, Radish, Wild [2, 19] | Plant response rating, Buckwheat, Wild [4, 19] | Plant response rating, Oilseed Rape [5, 15] | Plant response rating, Kochia [11, 17]
45: Plant response rating, Bluegrass [8, 17] | Plant response rating, Speedwell [10, 15] | Plant response rating, Speedwell [10, 16]
